Source: PMC10133576, “Interactions between curcumin and human salt-induced kinase 3 elucidated from computational tools and experimental methods” (Frontiers in Pharmacology, 2023)
pIC50: −log10 of the molar value.

Target: human salt-induced kinase 3 (SIK3) (Homo sapiens, UniProt Q9Y2K2)
Assay: KinaseProfiler radiometric protein kinase assay (Eurofins), ATP at Km
Type: biochemical

human salt-induced kinase 3 (SIK3), sequence (Q9Y2K2 whole entry): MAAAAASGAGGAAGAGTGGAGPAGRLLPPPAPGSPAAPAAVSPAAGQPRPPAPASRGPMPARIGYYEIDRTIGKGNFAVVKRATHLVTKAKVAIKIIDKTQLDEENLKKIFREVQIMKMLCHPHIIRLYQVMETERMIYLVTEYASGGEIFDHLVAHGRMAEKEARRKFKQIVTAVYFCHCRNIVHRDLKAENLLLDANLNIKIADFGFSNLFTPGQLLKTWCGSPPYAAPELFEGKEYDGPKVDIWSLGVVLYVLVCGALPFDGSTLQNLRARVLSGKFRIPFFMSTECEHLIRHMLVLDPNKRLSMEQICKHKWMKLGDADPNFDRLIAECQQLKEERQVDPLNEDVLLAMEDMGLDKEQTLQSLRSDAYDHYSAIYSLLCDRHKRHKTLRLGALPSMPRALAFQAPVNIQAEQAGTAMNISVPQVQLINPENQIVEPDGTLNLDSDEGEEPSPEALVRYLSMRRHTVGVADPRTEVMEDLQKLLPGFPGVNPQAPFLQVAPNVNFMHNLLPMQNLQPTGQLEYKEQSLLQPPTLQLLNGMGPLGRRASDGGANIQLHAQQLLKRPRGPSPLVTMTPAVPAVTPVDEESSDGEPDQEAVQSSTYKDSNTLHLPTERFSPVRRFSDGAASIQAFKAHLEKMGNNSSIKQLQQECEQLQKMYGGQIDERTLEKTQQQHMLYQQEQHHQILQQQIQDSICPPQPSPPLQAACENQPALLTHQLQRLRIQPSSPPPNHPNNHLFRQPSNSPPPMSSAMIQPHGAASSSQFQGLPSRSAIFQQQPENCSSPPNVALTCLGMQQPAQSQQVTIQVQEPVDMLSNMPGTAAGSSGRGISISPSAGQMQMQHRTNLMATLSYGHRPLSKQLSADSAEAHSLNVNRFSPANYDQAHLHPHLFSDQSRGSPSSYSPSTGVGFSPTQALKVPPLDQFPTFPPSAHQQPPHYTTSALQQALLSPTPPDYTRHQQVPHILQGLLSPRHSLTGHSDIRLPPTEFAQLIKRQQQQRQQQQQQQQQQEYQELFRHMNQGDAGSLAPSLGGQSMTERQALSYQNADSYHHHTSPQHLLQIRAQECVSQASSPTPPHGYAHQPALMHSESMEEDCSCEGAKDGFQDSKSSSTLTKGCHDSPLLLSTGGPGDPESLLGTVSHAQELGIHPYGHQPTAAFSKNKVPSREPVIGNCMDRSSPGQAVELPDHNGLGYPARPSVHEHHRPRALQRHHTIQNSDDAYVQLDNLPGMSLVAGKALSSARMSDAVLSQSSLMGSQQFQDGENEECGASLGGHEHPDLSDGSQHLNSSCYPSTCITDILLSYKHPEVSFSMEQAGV

With `COc1cc(/C=C/C(=O)CC(=O)/C=C/c2ccc(O)c(OC)c2)ccc1O` [curcumin] the pIC50 was 6.88.
